Laboratory results taken from PMC9220111, “Pharmacokinetics and Pharmacodynamics of Colistin Methanesulfonate in Healthy Chinese Subjects after Multi-Dose Regimen” (Antibiotics, 2022).
“Also recorded” adds a separate entry of the source. Read-outs that look alike come from different tables or passages of the source. Positions of bridges follow the written chain, without caps; N, C: chain ends. Non-standard residues stand in square brackets, D forms with d. Residues, ends and D or L forms follow the SMILES beside them. *: point of attachment. X1 = CC[C@H](C)CCCCC(=O)*; Dab = NCC[C@H](N)C(=O)O

Columns and labels:
[1] = Urine excretion of CMS and colistin after multi-dose intravenous infusions of CMS; type: in vivo; conditions: human, 12 subjects, mean ± SD, read-out: Cumulative urine excretion rate within 0–24 h
Description: Urine samples (700 μL) were mixed with equal volume of 1% bovine serum albumin (BSA) prior and stored at −70 ± 10 °C until analysis.

[2] = cited from earlier work
Description: CMS in clinic has generally been expressed as the internationally accepted term of c ... || A new CMS formula was produced with a 4:1 ratio of CMS A:CMS B, and met the requirements of the European Pharmacopoeia EP9.2 [9]. […] The Cavg,ss (95% CI) was 0.92 (0.85, 0.99) μg/mL after 7 days of 2.5 mg/kg CBA every 12 h (q12 h) administration of this new formulation, as simulated by the obtained single-dose PK parameters. The purpose of this study was to investigate the PK characteristics of CMS and colistin in plasma and urine following multip ... || This study evaluated the applicability of CMS at the recommended dosing regimen (2.5 mg/kg CBA q12 h) for the first time in Chinese subjects.

[3] = test system: extremely drug-resistant (XDR) P. aeruginosa; conditions: cited from earlier work
[4] = value used to calculate fAUC0–24; cited from earlier work
Description: The target values of fAUC0–24/MIC used in this study were from published PK/PD study reports of colistin, conducted on animal infection models. […] The free colistin fraction f used was 50% [6, 31]. AUC0–24,ss values from this study were calculated as 2 times AUC0–12 on day 7 based on the twi ...

[5] = Plasma pharmacokinetics of CMS and colistin after multi-dose intravenous infusions of CMS; conditions: for CLr: renal clearance; for AI (accumulation index): Day 7, after 7 consecutive days of CMS 2.5 mg/kg CBA i.v. q12 h; for clearance: CLt; for Cmax: healthy Chinese subjects, UPLC-MS/MS
Description: (§2) A single-center, open-label, multi-dose trial design was conducted following multiple intravenous administrations of CMS in 12 healthy Chinese subjects.
(§3) The dose regimen was 2.5 mg/kg CBA for 7 consecutive days with 12 h between each administration, except for one dose on day 1 (first dose) and day 7 (last dose). Each intravenous infusion time was 90 ± 10 min.
(§4) The blood samples were collected on day 1 and day 7 at pre-dose during intravenous infusion (30 min and 60 min after the start of intravenous infusion), immediately after the end of intravenous infusion (1.5 h) and at 1.75 h, 2 h, 2.5 h, 3.5 h, 5 h, 7 h, 9 h, 12 h, 16 h and 24 h after the start of intravenous infusion. From day 2 to day 6, blood samples were collected before and immediately after the end of infusion of the first dose. All blood samples were collected and transferred into an EDTA-K2 tube, and were then centrifuged at 3500 rpm for 10 min at 4 °C. Within 1 h after blood collection, the plasma samples were stored at −70 ± 10 °C until analysis [10].
(§5) The concentrations of CMS and colistin in plasma and urine samples were analyzed with a verified ultra-performance liquid chromatography tandem mass spectrometry method [30]. To determine the free colistin concentration, the matrix was alkalized with 5% ammonia at 0–4 °C, and CMS concentrations were obtained with acid hydrolysis, and then loaded onto the Oasis weak cation exchange 96-well plate (WCX, Waters, Milford, MA, USA). The standard curves of colistin A/colistin B for the plasma and urine samples ranged from 0.0446/0.0332–4.46/3.32 μg/mL to 0.0223/0.0166–2.23/1.66 μg/mL [10], respectively. The concentrations of colistin and CMS were determined as the major components of colistin A+ colistin B and colistin A methanesulfonate (CMS A) + colistin B methanesulfonate (CMS B), respectively.
(§6) The PK parameters of CMS and colistin in plasma were calculated by the non-compartment model [23] using the WinNonlin8.0 software (Pharsight, Mountain View, CA, USA). […] The urine excretion rate was calculated according to the correction of renal clearance (CLr). The PK parameters in urine samples calculated included interval urinary excretion rate, cumulative urinary excretion rate and CLr.
(§7) The PK parameters were expressed as average ± standard deviation (mean ± SD). The main PK parameters after the first and last doses were evaluated by paired t test (SAS 9.4, SAS Institute, Inc., Cary, NC, USA). p value ≤ 0.05 was considered as significant.

[6] = Safety evaluation: clinical adverse events and laboratory tests; type: in vivo, human
Description: (§1) During the study, close observations and detailed records were kept in all subjects for clinical adverse events (AE), abnormal results of clinical laboratory tests and other specific examinations. The early renal damage indicators, including serum β2-microglobulin, serum Cysteine […] inhibitor C (Cystatin C), urine neutrophils gelatinase-associated lipocalin (NGAL) and urine β2-microglobulin, were tested at day 4 and day 8 after the start of drug administration.

[7] = Early renal damage indicators, serum creatinine and urea; type: in vivo, human; conditions: Day8; individual subjects S01–S12, one line each; normal range 0.7-1.8 mg/L
Description: as §1

[8] = human, in vivo, iv
Description: as §2, §3, §4, §5, §6, §7

[9] = human, in vivo; cited from earlier work
[10] = earlier CMS formula, CMS A:CMS B 1:2, healthy Chinese subjects
[11] = 33 patients with XDR P. aeruginosa UTIs
[12] = Day 1 (first dose), CMS 2.5 mg/kg CBA i.v., mean ± SD, n = 12, day 1 urine stored without BSA, for reference only, SD
[13] = Day 7 (last dose), CMS 2.5 mg/kg CBA i.v. q12 h 7 days, mean ± SD, n = 12, SD
[14] = Day 7 (last dose, steady state), CMS 2.5 mg/kg CBA i.v. q12 h 7 days, plasma, mean ± SD, n = 12, SD
[15] = human, plasma, iv, 2.5 mg/kg CBA, SD
[16] = 12 healthy Chinese subjects, CMS 2.5 mg/kg CBA i.v. q12 h 7 days
[17] = individual healthy Chinese subjects S01–S12, one line each, CMS 2.5 mg/kg CBA i.v. q12 h 7 days
[18] = Day 1 (first dose), CMS 2.5 mg/kg CBA i.v., mean ± SD, n = 12, SD
[19] = Day 1 (first dose), CMS 2.5 mg/kg CBA i.v., plasma, mean ± SD, n = 12, SD

Compound: CC[C@H](C)CCCCC(=O)N[C@@H](CCN)C(=O)N[C@H](C(=O)N[C@@H](CCN)C(=O)N[C@H]1CCNC(=O)[C@H]([C@@H](C)O)NC(=O)[C@H](CCN)NC(=O)[C@H](CCN)NC(=O)[C@H](CC(C)C)NC(=O)[C@@H](CC(C)C)NC(=O)[C@H](CCN)NC1=O)[C@@H](C)O [colistin] (X1-[Dab]T[Dab][Dab][Dab][dL]L[Dab][Dab]T; lactam 4-C)
- dose excreted ([1]; after the first dose, CMS 2.5 mg/kg CBA i.v., day 1 urine stored without BSA, for reference only): 0.41 ± 0.28%
- dose excreted ([1]; urine, 2.5 mg/kg CBA, after the last dose (steady state), CMS 2.5 mg/kg CBA i.v. q12 h 7 days): 1.22 ± 0.7%
- plasma Cavg,ss of colistin ([2]; 51 critically ill patients with normal renal function (CLCr ≥ 80 mL/min), FDA-recommended dose 2.5–5 mg CBA/kg): 1.29 (0.45–5.28) μg/mL
- median Cavg,ss concentration ([2]; 87 critically ill patients with CrCL >120 mL/min, loading dose 9 MIU then 4.5 MIU twice daily): 1.6 (0.4–4.8) μg/mL
- median concentration (plasma Cavg,ss of colistin) ([2]; 214 patients with different renal functions): 2.35 (0.24–9.92) μg/mL
- AUC0–12,ss [2, 10]: 9230 ± 1790 ng·h/mL
- Cavg,ss [2, 10]: 760 ± 151 ng/mL
- AUC0–12,ss ([2]; healthy Japanese subjects, CMS 2.5 mg/kg CBA i.v. twice a day for 2.5 days): 25700 ± 7490 ng·h/mL
- Patients achieving Cavg,ss at ≥1 μg/mL ([2]; patients with normal renal function at the recommended doses of EMA and FDA): 65–75%
- Cavg,ss (95% CI) ([2]; simulated from single-dose PK parameters, 7 days of 2.5 mg/kg CBA q12 h of the new formulation): 0.92 (0.85, 0.99) μg/mL
- AUC0–24/MIC [3, 11]: 60.5 ± 56.4
- fAUC0–24/MIC [3, 11]: 30.2 ± 28.2
- Cavg,ss ([3]; patients with XDR P. aeruginosa UTIs): 1.19 (0.21–5.20) μg/mL
- free colistin fraction f [4]: 50%
- CLr [5, 12]: 0.013 ± 0.0067 mL/min/kg
- CLr [5, 13]: 0.025 ± 0.012 mL/min/kg
- Cavg,ss [5, 14]: 1270 ± 270 ng/mL
- Cmin,ss [5, 14]: 670 ± 220 ng/mL
- AI (accumulation index) ([5]; mean ± SD, n = 12, SD): 1.32 ± 0.06
- AUC(0-t) ([5]; human, plasma, iv, 2.5 mg/kg CBA, AUC0–12 (AUC0–12,ss), Day 7 (last dose, steady state), CMS 2.5 mg/kg CBA i.v. q12 h 7 days, plasma, mean ± SD, n = 12, SD): 15300 ± 3290 ng·h/mL
- AUC(0-t) ([5]; human, plasma, iv, 2.5 mg/kg CBA, AUC0–12, Day 1 (first dose), CMS 2.5 mg/kg CBA i.v., plasma, mean ± SD, n = 12, SD): 9800 ± 1710 ng·h/mL
- AUC(0-t) ([5]; human, plasma, iv, 2.5 mg/kg CBA, AUC0–24, Day 1 (first dose), CMS 2.5 mg/kg CBA i.v., plasma, mean ± SD, n = 12, SD): 12600 ± 2550 ng·h/mL
- clearance ([5]; human, plasma, iv, 2.5 mg/kg CBA, Day 1 (first dose), CMS 2.5 mg/kg CBA i.v., mean ± SD, n = 12, SD): 3.5 mL/min/kg
- clearance ([5]; human, plasma, iv, 2.5 mg/kg CBA, Day 7 (last dose, steady state), CMS 2.5 mg/kg CBA i.v. q12 h 7 days, mean ± SD, n = 12, SD): 3 mL/min/kg
- Cmax ([5]; human, plasma, iv, 2.5 mg/kg CBA, Cmax, Day 1 (first dose), CMS 2.5 mg/kg CBA i.v. infusion 90 min, plasma, non-compartment model, mean ± SD, n = 12, SD): 1170 ± 180 ng/mL
- Cmax ([5]; human, plasma, iv, 2.5 mg/kg CBA, Cmax, Day 7 (last dose, steady state), CMS 2.5 mg/kg CBA i.v. q12 h 7 days, plasma, mean ± SD, n = 12, SD): 1790 ± 370 ng/mL
- half-life ([5]; human, plasma, iv, 2.5 mg/kg CBA, T1/2, Day 1 (first dose), CMS 2.5 mg/kg CBA i.v., plasma, mean ± SD, n = 12, SD): 5.15 ± 0.95 h
- half-life ([5]; human, plasma, iv, 2.5 mg/kg CBA, T1/2, Day 7 (last dose), CMS 2.5 mg/kg CBA i.v. q12 h 7 days, plasma, mean ± SD, n = 12, SD): 5.9 ± 0.58 h
- half-life ([5]; human, plasma, iv, 2.5 mg/kg CBA, T1/2, median, after the first dose, median, n = 12): 4.97 h
- half-life ([5]; human, plasma, iv, 2.5 mg/kg CBA, T1/2, median, after the last dose, median, n = 12): 6.1 h
- Tmax ([5]; human, plasma, iv, 2.5 mg/kg CBA, Day 1 (first dose), CMS 2.5 mg/kg CBA i.v., plasma, mean ± SD, n = 12, SD): 4.42 ± 0.9 h
- Tmax ([5]; human, plasma, iv, 2.5 mg/kg CBA, Day 7 (last dose), CMS 2.5 mg/kg CBA i.v. q12 h 7 days, plasma, mean ± SD, n = 12, SD): 3.38 ± 0.68 h
- Tmax ([5]; human, plasma, iv, 2.5 mg/kg CBA, median, after the first dose, median, n = 12): 5 h
- Tmax ([5]; human, plasma, iv, 2.5 mg/kg CBA, median, after the last dose, median, n = 12): 3.5 h
- Vd ([5]; human, plasma, iv, 2.5 mg/kg CBA, Vd, Day 1 (first dose), CMS 2.5 mg/kg CBA i.v., mean ± SD, n = 12, SD): 1.52 ± 0.22 L/kg
- Vd ([5]; human, plasma, iv, 2.5 mg/kg CBA, Vd, Day 7 (last dose, steady state), CMS 2.5 mg/kg CBA i.v. q12 h 7 days, mean ± SD, n = 12, SD): 1.66 ± 0.25 L/kg
- level at 48 h [5, 15]: 93 ± 42.8 ng/mL
- level at 72 h [5, 15]: 632 ± 155 ng/mL
- level at 96 h [5, 15]: 684 ± 177 ng/mL
- level at 120 h [5, 15]: 738 ± 217 ng/mL
- level at 144 h [5, 15]: 754 ± 238 ng/mL

Compound: Colistin methanesulfonate [CMS]
- Deaths or serious adverse events [6, 16]: No serious adverse events were observed; also recorded: No deaths or other serious adverse events occurred
- Vital signs, QTc and electrocardiogram [6, 16]: No abnormal vital signs nor QTc prolongations or other clinically significant electrocardiogram abnormalities were found
- Nephrotoxicity ([6]; 12 healthy Chinese subjects, CMS 2.5 mg/kg CBA i.v. q12 h 7 days, no increase in urine β2 microglobulin and urine NGAL): no nephrotoxicity was observed; also recorded: No obvious nephrotoxicity occurred
- Subjects with adverse effects ([6]; 12 healthy Chinese subjects, after multi-dose i.v. infusions of CMS, all mild and transient): Eleven out of the twelve
- Abnormality in Laboratory Test [6, 17]: Normal; also recorded: Decreased absolute value of neutrophils (2 days)
- Clinical Adverse Event (Duration) [6, 17]: Facial itchiness (4 days and 12 h) Tongue numbness (5 days and 2 h) Dizziness (2 days and 16 h); also recorded: Facial itchiness (2 days and 3 h) Tongue numbness (5 days and 8 h); also recorded: Tongue numbness (6 days and 12 h) Lip numbness (5 days and 10 h) Sore throat (1 day and 23 h) Erythema (6 days and 13 h); also recorded: Normal; also recorded: Tongue numbness (5 days and 20 h) Dizziness (4 h); also recorded: Tongue numbness (5 days and 14 h); also recorded: Tongue numbness (5 days and 8 h) Dizziness (2 days and 13 h) Headache (1 day and 19 h) Lip numbness (1 day and 10 h) Skin itchiness (1 day and 20 h); also recorded: Tongue numbness (5 days and 20 h) Lip numbness (2 days and 15 h) Pharyngeal discomfort (5 days and 16 h) Facial numbness (4 days and 16 h)
- serum β2-microglobulin [7]: 1.72 mg/L
- T1/2, median [8]: 1.72 h
- half-life [8]: 1.52 h
- incidence of nephrotoxicity [9]: 26.0–74.1%
- CLt [5, 18]: 1.3 ± 0.33 mL/min/kg
- Vd [5, 18]: 0.15 ± 0.03 L/kg
- fm (fraction of CMS converted to colistin in the body) [5, 18]: 0.27 ± 0.12
- AUC0–12 [5, 19]: 53730 ± 9770 ng·h/mL
- AUC0–24 [5, 19]: 53960 ± 9930 ng·h/mL
- CLr [5, 12]: 1 ± 0.17 mL/min/kg
- Cmax ([5]; Day 1 (first dose), CMS 2.5 mg/kg CBA i.v. infusion 90 min, plasma, non-compartment model, mean ± SD, n = 12, SD): 22200 ± 4380 ng/mL
- fm (fraction of CMS converted to colistin in the body) [5, 13]: 0.45 ± 0.15
- CLr [5, 13]: 0.67 ± 0.33 mL/min/kg
- CLt ([5]; Day 7 (last dose, steady state), CMS 2.5 mg/kg CBA i.v. q12 h 7 days, mean ± SD, n = 12, SD): 1.3 ± 0.33 mL/min/kg
- Cavg,ss [5, 14]: 4410 ± 754 ng/mL
- Cmin,ss [5, 14]: 133 ± 141 ng/mL
- AI (accumulation index) ([5]; mean ± SD, n = 12, SD): 1.07 ± 0.10
